Results: patent US8431706B2, “1,2,3,4-tetrahydroqinoline derivative useful for the treatment of diabetes” (Eli Lilly and Company, priority 2011, dated 2013)
pIC50: −log10 of the molar value.

Target: T1, PPARγ (Homo sapiens, UniProt P37231)
T1 sequence (P37231 1-505): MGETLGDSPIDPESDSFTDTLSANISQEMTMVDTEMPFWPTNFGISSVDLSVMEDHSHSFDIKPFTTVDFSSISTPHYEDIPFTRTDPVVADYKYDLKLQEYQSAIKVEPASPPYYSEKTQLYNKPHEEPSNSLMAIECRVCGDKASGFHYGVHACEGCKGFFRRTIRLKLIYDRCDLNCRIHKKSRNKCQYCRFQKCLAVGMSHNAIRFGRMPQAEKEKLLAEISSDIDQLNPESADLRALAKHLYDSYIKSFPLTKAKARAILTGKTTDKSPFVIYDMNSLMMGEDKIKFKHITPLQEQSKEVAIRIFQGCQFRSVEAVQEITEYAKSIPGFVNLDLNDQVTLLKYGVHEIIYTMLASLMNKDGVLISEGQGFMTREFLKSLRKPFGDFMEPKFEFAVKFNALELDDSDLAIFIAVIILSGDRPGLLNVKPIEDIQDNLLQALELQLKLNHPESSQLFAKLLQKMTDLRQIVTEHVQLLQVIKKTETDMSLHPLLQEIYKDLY
T1 sequence (P19793 1-462 partner): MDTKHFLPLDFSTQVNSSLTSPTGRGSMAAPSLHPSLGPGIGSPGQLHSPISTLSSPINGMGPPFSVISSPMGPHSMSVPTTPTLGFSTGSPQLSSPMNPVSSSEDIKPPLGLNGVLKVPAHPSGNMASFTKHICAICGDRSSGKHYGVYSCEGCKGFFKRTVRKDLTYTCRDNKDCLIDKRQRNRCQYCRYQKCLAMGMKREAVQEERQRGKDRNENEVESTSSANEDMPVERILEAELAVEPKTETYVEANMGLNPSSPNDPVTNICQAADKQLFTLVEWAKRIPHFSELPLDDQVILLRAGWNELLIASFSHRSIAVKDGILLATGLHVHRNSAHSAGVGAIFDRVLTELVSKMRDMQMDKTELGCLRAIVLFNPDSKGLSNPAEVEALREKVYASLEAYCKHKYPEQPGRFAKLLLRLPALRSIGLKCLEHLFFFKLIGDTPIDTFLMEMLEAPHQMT
Test: PPARγ binding assay (SPA)
Parameters: made in house; host or cells: HEK293 (cell lysates)
Protocol: Because GPR40 is known to be activated by ligands to PPARγ, the exemplified compound is examined in PPARα, PPARδ, and PPARγ binding and functional assays to determine the selectivity of the compound of Example 1 for GPR40.
Binding affinities of the compound for the PPAR α, δ, and γ receptors are assessed using Scintillation Proximity Assay (SPA) technology. Biotinylated oligonucleotide Direct Repeat 2 (DR2) is used for binding the receptors to Yttrium silicate streptavidin-coated SPA beads. PPAR α, δ, γ and retinoid X receptor (RXR) α are over expressed in HEK293 cells, and cell lysates containing the specific receptors are used in the individual assays. The DR2 is attached to the SPA beads over a 30 minute period in a binding buffer containing 10 mM HEPES pH 7.8, 80 mM KCl, 0.5 mM MgCl2, 1 mM DTT, 0.5% 3[(3-cholamidopropyl)dimethylammonio]-propanesulfonic acid (CHAPS), and 4.4% bovine serum. […] Non-specific binding is determined in the presence of 10,000 nM of the unlabeled PPAR α/δ dual agonist reference compound for the alpha and delta receptor assays and the PPARγ agonist reference compound for the gamma receptor assay. The binding reaction (100 μl per well in a 96 well [Costar 3632] plate) is incubated for 10 h and counted disintegration per minutes (dpm) on a Wallac Microbeta. Receptor binding affinity (IC50) for the compound is determined by fitting an 11 point concentration-response curve with a 4-parameter logistic equation. Ki is determined from the IC50 using the Cheng-Prussoff equation and Kd determined by saturation binding. […]

- binding (concentrations up to 10 μM): no binding is detected
- pIC50 (tested up to 30 μM, read-out: relative IC50): < 5.00
- PPAR binding values (with 10 μM concentrations of test compound): greater than 1000 nM
Structure (SMILES): CC#C[C@@H](CC(=O)O)c1ccc(OCc2ccc(CN3CCCc4cccc(OC)c43)s2)cc1 [Example 1, (3S)-3-[4-[[5-[(8-Methoxy-3,4-dihydro-2H-quinolin-1-yl)methyl]-2-thienyl]methoxy]phenyl]hex-4-ynoic acid]
